Tested on: HeLa t-derived AAV producer cells
Assay: Production of rAAV-(B7.2/GM-CSF) in producer cells using different inhibitors or helper viruses (transducing rAAV titer / AAV packaging efficiency)
Type: cell-based
Conditions: AdV MOI 10 alone or with 50 mM Na butyrate, 3 μM trichostatin A or 3 μM 5-azacytidine, or HSV-1 MOI 10 as helper virus, three days after infection
Description: The use, according to the invention, of the DNA methylation inhibitor leads to an increase in packaging efficiency to a level of at least 10^6, especially 10^7, preferably 10^8, in particular 10^9, transducing particles/ml of crude lyzate or of at least 10^10, especially 10^11, preferably 10^12, in particular 10^13, genomic particles/ml of crude lyzate. This corresponds to 10^5 to 10^8 genomic particles per sown cell. The packaging efficiency can be determined indirectly by using suitable cell lines to determine the transducing AAV titer. While this was effected specifically in this present case by measuring the B7.2-positive cells by fluorescence-labeling B7.2 and counting by means of FACS analysis, another common protein detection method can be used in the case of other transgenes. The transducing titer depends on the detection method and on the cell type employed, which means that it is necessary to select suitable cells when choosing the system for detecting the corresponding parvovirus or AAV serotype, for example HeLa cells in the case of AAV-2. The genomic titer is independent of the cell type. The genomic titer can be ascertained by means of real-time PCR, for example as described by Veldwijk M R et al. (2002) Mol. Ther. 6:272-8.
AdV was administered either alone or in combination with 50 mM Na butyrate (But), 3 μM trichostatin A (TSA) or 3 μM 5-azacytidine (Aza) (Sigma, Deisenhofen). “Standard” means transient cotransfection of HeLa cells with pAAV-(B7.2/GM-CSF) and the AAV-2 rep/cap helper plasmid and infection with adenovirus (AdV) (MOI 10); harvesting, 3 days after infection;
rAAV-(B7.2/GM-CSF) was initially prepared using producer cell lines (e.g. 1×10^6 cells sown in a 6 cm diameter cell culture dish, with the cells being sown 1 day before the infection) by infecting with adenovirus (multiplicity of infection, MOI 10). […] After 72 hours, the lyzates were prepared by freeze/thaw lysis and freed from the cell debris. Adenovirus […] HSV-1 was heat-inactivated at 56° C. […]

## Nc1ncn([C@@H]2O[C@H](CO)[C@@H](O)[C@H]2O)c(=O)n1 [Aza, 5-azacytidine]
  AAV packaging efficiency (yield of transducing rAAV particles): restore this AAV packaging efficiency

## CCCC(=O)[O-].[Na+] [But, Na butyrate]
  AAV packaging efficiency (yield of transducing rAAV particles): did not result in an increase in AAV packaging efficiency

## CC(/C=C/C(=O)NO)=C\[C@@H](C)C(=O)c1ccc(N(C)C)cc1 [TSA, trichostatin A]
  AAV packaging efficiency (yield of transducing rAAV particles): did not result in an increase in AAV packaging efficiency

— patent US20050080027A1, “Optimized production of viral vectors derived from paroviruses in packaging and production cells by hsv infection or treatment with dna methylation inhibitors” (priority 2001, published 2005)
